{
  "source": "patent US8691851B2",
  "about": "“Lanthanide metal complexes useful in treating cancer” (National University of Singapore, priority 2009, dated 2014)",
  "key": {"Bax, cytochrome C": {"system": "Bax, cytochrome C", "conditions": "5 μM and 10 μM"}, "PPARγ [1]": {"target": "T1, PPARγ (Homo sapiens, UniProt P37231)", "T1 sequence (P37231 1-505)": "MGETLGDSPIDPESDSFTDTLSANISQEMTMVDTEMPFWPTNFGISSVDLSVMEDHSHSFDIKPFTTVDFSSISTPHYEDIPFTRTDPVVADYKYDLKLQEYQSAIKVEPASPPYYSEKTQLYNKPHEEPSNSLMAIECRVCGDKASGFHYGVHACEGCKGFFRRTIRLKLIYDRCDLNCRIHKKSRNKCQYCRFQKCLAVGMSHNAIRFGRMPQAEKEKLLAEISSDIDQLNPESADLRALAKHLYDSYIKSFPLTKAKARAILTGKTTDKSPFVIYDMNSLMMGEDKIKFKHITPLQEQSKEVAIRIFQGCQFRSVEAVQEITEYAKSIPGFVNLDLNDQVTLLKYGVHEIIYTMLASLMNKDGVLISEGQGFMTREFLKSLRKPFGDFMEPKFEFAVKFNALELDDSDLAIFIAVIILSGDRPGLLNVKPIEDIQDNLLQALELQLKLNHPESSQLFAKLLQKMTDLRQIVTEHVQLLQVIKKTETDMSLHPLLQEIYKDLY", "assay": "pPPREx3-TKLuc reporter with PPAR-γ short-hairpin RNA silencing (Method 1)", "assay_type": "cell-based", "design": "endogenous in cells; host or cells: SHSY5Y, SHEP1 / SHEP-1 (neuroblastoma); MDA-MB-231, T47D (breast cancer)", "conditions": "SHEP-1 cells, 5 uM and 10 uM, 18 hr", "description": "In Method 1, a reporter plasmid containing three copies of the PPAR response element (pPPREx3-TKLuc) as illustrated in FIG. 19A and as previously described in Kim et al, Toxicological Sciences, 85, (2005), pp. 585-593, was transfected into SHEP-1 cancer cells. This system directly measures activation of endogenous PPAR via transcriptional activation of the luciferase reporter gene as a result of PPARγ binding to the PPAR response element (PPRE). To determine whether PPARγ receptor is activated by C19H24N3O5S5Pr, the SHEP-1 cancer cells was transiently transfected with either short-hairpin RNA plasmid targeting PPAR-γ protein or short hairpin RNA negative control. The cells were exposed to varying doses (5 uM, 10 uM) of C19H24N3O5S5Pr for 18 hr."}, "LC3 II": {"system": "LC3 II", "assay": "LC3 II formation by Western blot", "assay_type": "cell-based", "conditions": "SHEP-1 and SHSY5Y cells, 5 μM and 10 μM, 4 hr, 8 hr and 18 hr"}, "PTEN, RhoB, MnSOD": {"system": "PTEN, RhoB, MnSOD", "conditions": "SHEP-1 and MDA-MB-231 cells, 5 μM and 10 μM, dose-dependent", "description": "Whole cell lysates were prepared with RIPA lysis buffer containing 10 mM Tris-HCL pH7.4, 30 mM NaCl, 1 mM EDTA, 1% Nonidet P-40, supplemented with 1 mM Na3VO4, 1 μg/ml leupeptin, 1 μg/ml pepstatin A, 1 μg/ml aprotinin and 1 mM PMSF before use. Protein concentration was determined for each sample and equal amounts of protein were boiled for 5 min for other proteins, with 1×SDS sample buffer and resolved by 8% SDS-PAGE. Thereafter, proteins were transferred onto nitrocellulose membrane, blocked for 1 h at room temperature with 5% non-fat milk, and incubated overnight at 4° C. with the primary antibody. After probing with secondary antibody for 1 hr at 25° C., protein bands were detected by using the Supersignal West Pico Chemiluminescence (Pierce). β-actin antibody was used as a loading control.\nReferring to FIGS. 14 and 15, SHEP-1 neuroblastoma cells and MDA-MB-231 breast cancer cells were treated with different concentrations of C19H24N3O5S5Pr at 5 μM and 10 μM for 4 hr, 8 hr, 18 hr, 241r, 48 hr and 72 hr. Whole cell extracts were prepared and protein expression was examined by Western Blot analysis. 70 μg of total protein was loaded per lane for each experiment. The levels of protein were determined by using specific primary antibody followed by peroxidise-conjugated secondary antibody and visualization by enhanced chemiluminescence."}, "PPARγ [2]": {"system": "PPARγ", "conditions": "SHEP1 cells, 0 to 5 uM, 18 hours", "description": "To determine if C19H24N3O5S5Pr binds to PPARγ, neuroblastoma SHEP1 cells were transiently co-transfected with either empty vector or a DNA-binding mutant of PPARγ, 3×PPPRE luciferase plasmid and renilla plasmid for transfection efficiency. Forty eight hours following transfection, the cells were exposed to increased concentration (0 to 5 uM) of C19H24N3O5S5Pr for 18 hours. PPARγ activity was calculated as luciferase RLU/renilla/μg total protein."}, "SHEP1 cells": {"system": "SHEP1 cells", "conditions": "mPPARg PCMX versus empty vector, 0 to 5 uM", "description": "(§1) To detect breast cancer cell death via cell viability assay, the mitochondrial activity, as an index of cell viability, was measured using the MTT method (Mosmann, T. J Immunol Methods, 1983; 65: 55-63). Briefly, cells were treated in triplicates in 96-well plate. After completion of the experimental period, 20 μl of MTT reagent (5 mg/ml) was added per well of culture (containing 100 μl treatment media). The reaction was allowed to proceed for 4 to 6 h at 37° C. SDS (10%) was then added (200 μl/well) overnight and the absorption at 595 nm measured."}, "T47D breast cancer cells": {"system": "T47D breast cancer cells", "conditions": "low PPARγ expressing cells, 24 hours", "description": "as §1"}, "[3]": {"system": "SHEP1 and SHSY5Y neuroblastoma cells", "conditions": "24 hours", "description": "as §1"}, "PTEN and MnSOD mRNA": {"system": "PTEN and MnSOD mRNA", "conditions": "SHEP-1 cells, 10 uM, 4 hr, 8 hr and 18 h", "description": "This example illustrates the effect of C19H24N3O5S5Pr on the mRNA levels of PTEN and MnSOD in SHEP-1 cancer cells. mRNA levels of PTEN and MnSOD were assayed by real time PCR after treatment with 10 uM Pr-MPO for 4 hr, 8 hr and 18 h."}},
  "note": "Read-outs that look alike come from different tables or passages of the source.",
  "data": [
    {"smiles": "CS(C)=O.CS(C)=O.[O-][n+]1ccccc1[S-].[O-][n+]1ccccc1[S-].[O-][n+]1ccccc1[S-].[Pr+3]", "note": "[C19H24N3O5S5Pr, praseodymium (2-mercaptopyridine N-oxide)(dimethylsulfoxide)]", "values": [
      {"measurement": "Bax translocation", "setting": "Bax, cytochrome C; SHEP-1 cells, 18 hr and 24 hr", "result": "causes Bax translocation to the mitochondrial fraction"},
      {"measurement": "cytochrome C release", "setting": "Bax, cytochrome C; SHEP-1 cells, 18 hr and 24 hr", "result": "cytochrome C release into the cytosol"},
      {"measurement": "Bax translocation", "setting": "Bax, cytochrome C; SHSY5Y cells, 24 hr", "result": "causes Bax translocation to the mitochondrial fraction"},
      {"measurement": "cytochrome C release", "setting": "Bax, cytochrome C; SHSY5Y cells, 24 hr", "result": "cytochrome C release into the cytosol"},
      {"measurement": "luciferase activity upon silencing of PPARγ protein", "setting": "PPARγ [1]", "result": "luciferase activity was abrogated"},
      {"measurement": "LC3 II induction", "setting": "LC3 II", "result": "induction of phosphtidylethaonolamine (PE)-conjugated form of microtubule-associated protein 1 light chain 3 (LC3 II)"},
      {"measurement": "MnSOD protein expression", "setting": "PTEN, RhoB, MnSOD", "result": "downregulated"},
      {"measurement": "PTEN protein expression", "setting": "PTEN, RhoB, MnSOD", "result": "upregulated"},
      {"measurement": "RhoB protein expression", "setting": "PTEN, RhoB, MnSOD", "result": "upregulated"},
      {"measurement": "PPARγ activation on overexpression of DNA-binding mutant PPARγ", "setting": "PPARγ [2]", "result": "significantly reduced the ability of C19H24N3O5S5Pr to activate PPARγ"},
      {"measurement": "cell viability on overexpression of wild type PPARγ", "setting": "SHEP1 cells", "result": "greater decrease in cell viability"},
      {"measurement": "cell viability (MTT)", "setting": "T47D breast cancer cells", "result": "remained viable"},
      {"measurement": "cell viability (MTT), SHEP1 versus SHSY5Y cells", "setting": "[3]", "result": "has a greater growth of SHEP1 cells compared to SHSY5Y cells"},
      {"measurement": "mRNA levels of PTEN and MnSOD", "setting": "PTEN and MnSOD mRNA", "result": "also found at the mRNA level"}
    ]}
  ]
}
